Where “and” joins values, the source holds several entries; their conditions need not be identical. Identical values can stand only once. Like-named read-outs stand apart in the source and are kept apart here.

The values below come from article PMC8406298, “Discovery of Fungus-Specific Targets and Inhibitors Using Chemical Phenotyping of Pathogenic Spore Germination” (mBio, 2021).

The subject of data set [1] is Cryptococcus spores. Nature of the data set: Quantitative germination assay (QGA), automated microscopy of spore germination. The data set is classed as cell-based, Cryptococcus neoformans serotype D (deneoformans). The note with it: for inhibition at 5 µM: Cryptococcus; for germination inhibition phenotype (chemical phenotype) in QGA: at phenotypic concentration. The procedure: In this automated microscopy-based assay, germination progression of spores is monitored as a function of changes in cell morphology over time (spores are small and oval; yeast are large and circular). Individual spores in a population (∼1 × 10^4 per sample) are measured to determine size (area) and shape (aspect ratio) from the onset of germination, and the data are collected for each cell over the time of germination (Fig. 1A).
Germination assays were modified from those described by Barkal et al. to introduce automation, increase throughput, and refine assay consistency ([12]). Briefly, 384-well plates (Thermo Scientific 142762) were loaded with 10^5 spores per well, and at 0 h, synthetic medium plus 2% dextrose (SD medium) containing the compounds of interest was added to the sample (final volume of 40 μl). All compounds were tested initially at 80 μM; however, concentrations were changed on a case-by-case basis for subsequent experiments. All assays and controls were performed with a final concentration of 0.8% DMSO (the compound solvent) unless specified otherwise. Spores were germinated at 30°C in a humidified chamber, and the same ∼5 × 10^3 cells were monitored every 2 h for 16 h. Imaging was performed on a Ti2 Nikon microscope, and each condition was visualized in a minimum of two individual wells with three fields of view acquired from each well. All images were analyzed as described previously based on cell shape and size using ImageJ. The population ratios of spores, intermediates, and yeast were determined. Error bars in plots are based on the variation among all fields of view acquired. Level of germination was determined by quantifying the decrease in the proportion of spores in a population, and rates were quantified by determining the change in this proportion over time. For all two-dimensional histograms, the x axis represents area from 0 μm^2 to 25 μm^2, and the y axis represents the aspect ratio from 0.4 to 1.
Cycloheximide (0.078 μM to 80 μM) (Dot Scientific, Inc. DSC81040-1), G418 (1.6 mM) (Fisher Scientific AAJ6267106), and puromycin (20 mM) (Dot Scientific, Inc. DSP33020-0.025) were tested with no DMSO (all were water soluble), whereas anisomycin (62.5 μM) (Sigma-Aldrich A9789-5MG) was tested in 2.5% DMSO.
Furcarbanil (80 μM) (Sigma-Aldrich T313122), rotenone (10 μM) (Fisher Scientific 501687383), and antimycin A (2.5 μM) (Santa Cruz Biotechnology, Inc. sc-202467A) were all tested in 0.8% DMSO, and TTFA (200 μM) (Sigma-Aldrich 88300-5G) was tested in 3% DMSO.

In data set [2] the test system is normal human dermal fibroblasts (NHDF) cells. Nature of the data set: Fibroblast cytotoxicity (CellTiter-Glo). The note with it: at concentrations as high as 80 μM; dose-response 0.5 to 80 μM. The data set is classed as cell-based. Put shortly:
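Normal human dermal fibroblasts, 1 × 10^3 per well, exposed to compounds at 10 μM for 72 h at 37°C. Viability read as ATP-dependent CellTiter-Glo luminescence. Dose-response runs titrated compounds from 80 μM to 0.5 μM in duplicate.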

Data set [3] has as its system Cryptococcus yeast (JEC21). The data set can be described thus: Oxygen consumption rate experiments (Seahorse XFe96). The data set is classed as cell-based, Cryptococcus neoformans serotype D (deneoformans). The conditions noted are these: 10 μM inhibitor injected after 20 mM glucose. The procedure:
Oxygen consumption experiments were performed on a Seahorse Biosciences XFe96 extracellular flux analyzer, and the assays were modified from those described by Lev et al. 2020 ([28]). Briefly, cartridges were hydrated overnight in Agilent Seahorse XF calibrant. JEC21 yeast were grown overnight in YPD, washed with double-distilled water (ddH2O) and resuspended to an OD600 of 0.08 in Seahorse XF Dulbecco’s modified Eagle medium (DMEM) at pH 7.4 (Agilent 103575-100). Cells (180 μl) were loaded into each well with the exception of blank wells, which were filled with XF DMEM. Each injection solution was 10× the final volume in XF DMEM. The assay was carried out at 30°C with injections occurring every 60 min. OCR was read every 6 min during each hour interval, with 3 min of mixing and 3 min of measuring. The following final concentrations were achieved after each injection: (a) 20 mM dextrose, (b) 10 μM chosen inhibitor (furcarbanil, B2, or B5) and 1% DMSO, (c) 50 μM rotenone, 50 μM antimycin A, and 1% DMSO, and (d) 100 mM 2-deoxy-D-glucose (2-DG; Sigma-Aldrich D8375-1G). Each condition was tested in triplicates.

The term inhibition denotes the percentage by which the read-out fell short of the control. A low value points to a response near the control. Molecule `Cc1nc(NCc2ccccc2)c2ccsc2n1` [A5] came in with an inhibition at 5 µM in data set [1] of more than 80%. This molecule yielded a cytotoxicity against fibroblasts in data set [2] of less than 20%.

For `Cc1cc(C(=O)N(CCc2cccs2)C2CC2)c(C)o1` [B2], in data set [1], the inhibition at 5 µM is more than 75%. In data set [3], the “effect on oxygen consumption rate (OCR)” value is given as “substantial decrease in OCR that was not recovered from”. In data set [2], this molecule yielded a cytotoxicity against fibroblasts not above 25%.

As for `Cc1cc(C(=O)N2CCC(Oc3ncccc3Cl)CC2)c(C)o1` [B5], in data set [3], the “effect on oxygen consumption rate (OCR)” value was “small decrease in OCR that was not recovered from”.

As for `CCCCSc1nc2ccc(C)cc2[nH]1` [PubChem CID 2129690], in data set [1], the “phenotypic concentration (concentration showing the germination phenotype in QGA)” value (“phenotypic concentration” for short) was found to be 80 µM and the “germination inhibition phenotype (chemical phenotype) in QGA” value is listed as “slow down”.

As to `NNc1nc2cc3c(cc2s1)OCCO3` [PubChem CID 2771030], the “germination inhibition phenotype in QGA” value in data set [1] (at 2.5 µM) was “bimodal”; in data set [1] (at higher concentrations (5 µM)), “combination phenotype of “bimodal” and “slow end””. In addition, in data set [1] (listed as G3), the “phenotypic concentration” value was 2.5 µM and 5 µM.

Take `ClC1(Cl)CC1Cn1cnc2ccccc21` (stereo not shown) [PubChem CID 2936975]: in data set [1], the “phenotypic concentration” value turned out to be 40 µM and the “germination inhibition phenotype (chemical phenotype) in QGA” value was “slow down”.

For the molecule `CCn1c(CSc2ccccc2)nc2ccccc21` [PubChem CID 2992099], in data set [1], the “phenotypic concentration” value was found to be 80 µM and the “germination inhibition phenotype (chemical phenotype) in QGA” value was “slow down”.

`COc1cccc2cc(-c3csc(NN=C4CCN(C)CC4)n3)c(=O)oc12` [PubChem CID 4913014]: in data set [1], the “phenotypic concentration” value was determined as 20 µM and the “germination inhibition phenotype (chemical phenotype) in QGA” value is on record as “asynchrony”.

Take `COc1ccc(/C=C/c2nc3ccccc3[nH]2)cc1` [PubChem CID 5769808]: in data set [1], the “phenotypic concentration” value amounted to 20 µM and the “germination inhibition phenotype (chemical phenotype) in QGA” value is “slow down”.

On to `C/C=C/c1ccc(OCCn2cnc3ccccc32)c(OC)c1` [PubChem CID 5769972], for which, in data set [1], the “phenotypic concentration” value was 10 µM and the “germination inhibition phenotype (chemical phenotype) in QGA” value is on record as “slow down”.

On to `O=C(Nc1nc2c(Br)cccc2s1)C1CC1` [PubChem CID 7202929], for which, in data set [1], the “phenotypic concentration” value was determined as 10 µM and the “germination inhibition phenotype (chemical phenotype) in QGA” value was “asynchrony”.

With `Cc1ccc(-c2nnc(Cn3cnc4ccccc43)o2)cc1` [PubChem CID 16456942], in data set [1], the “phenotypic concentration” value was found to be 5 µM and the “germination inhibition phenotype (chemical phenotype) in QGA” value was “slow down”.

Regarding `O=C(NC1CCCC1)c1csc(Nc2ccccc2)n1` [PubChem CID 30860168], in data set [1], the “phenotypic concentration” value was found to be 10 µM and the “germination inhibition phenotype (chemical phenotype) in QGA” value was “asynchrony”.

Turning to `CN(C)CCN(C(=O)c1c[nH]c2ccccc12)c1nc2ccc(OC(F)(F)F)cc2s1.Cl` [PubChem CID 71782913], in data set [1], the “phenotypic concentration” value was 20 µM and the “germination inhibition phenotype (chemical phenotype) in QGA” value is listed as “asynchrony”.

As for `O=C(c1cc(-c2ccco2)on1)N1CCC(c2cccs2)CC1` [PubChem CID 71786870], in data set [1], the “phenotypic concentration” value was found to be 40 µM and the “germination inhibition phenotype (chemical phenotype) in QGA” value was “asynchrony”.

Turning to `O=C(CSCc1ccccc1)N1CCC(c2cccs2)CC1` [PubChem CID 71786876], in data set [1], the “phenotypic concentration” value was 80 µM and the “germination inhibition phenotype (chemical phenotype) in QGA” value is “asynchrony”.

Regarding `O=C(CCSc1ccccc1)N1CCC(c2cccs2)CC1` [PubChem CID 71786877], in data set [1], the “phenotypic concentration” value is 80 µM and the “germination inhibition phenotype (chemical phenotype) in QGA” value is “asynchrony”.

For the molecule `O=C(CSCc1ccccc1)N1CCC(c2ccsc2)CC1` [PubChem CID 71786985], in data set [1], the “phenotypic concentration” value was 80 µM and the “germination inhibition phenotype (chemical phenotype) in QGA” value is listed as “asynchrony”.

For the molecule `O=C(CCc1ccccc1Br)N1CCC(c2cccs2)CC1` [PubChem CID 71807060], in data set [1], the “phenotypic concentration” value came out at 40 µM and the “germination inhibition phenotype (chemical phenotype) in QGA” value is on record as “asynchrony”.

In the case of `O=C(CCc1ccccc1Br)N1CCC(c2ccsc2)CC1` [PubChem CID 71807075], in data set [1], the “phenotypic concentration” value was found to be 40 µM and the “germination inhibition phenotype (chemical phenotype) in QGA” value is “asynchrony”.

On to `O=C(NCc1ccnc(-c2cccs2)c1)c1nc2ccccc2s1` [PubChem CID 91630328], for which, in data set [1], the “phenotypic concentration” value worked out at 40 µM and the “germination inhibition phenotype (chemical phenotype) in QGA” value is given as “asynchrony”.

Take `COc1ccc(C[C@H]2NC[C@H](O)[C@H]2OC(C)=O)cc1` [anisomycin, reference compound]: the “germination inhibition phenotype (chemical phenotype) in QGA” value in data set [1] was “slow-down”.

Consider `CCCCCC[C@H]1C(=O)O[C@H](C)[C@H](NC(=O)c2cccc(NC=O)c2O)C(=O)O[C@@H](C)[C@@H]1OC(=O)CC(C)C` [antimycin A, reference compound], for which, in data set [1], the “phenotypic concentration” value turned out to be 2.5 µM and the “germination inhibition phenotype (chemical phenotype) in QGA” value is on record as “asynchrony”.

As to `Cc1cc(C(=O)Nc2ccccc2)c(C)o1` [furcarbanil, reference compound], in data set [1], the “phenotypic concentration” value came out at 80 µM and the “germination inhibition phenotype (chemical phenotype) in QGA” value was “asynchrony”. Moreover, in data set [3], the “effect on oxygen consumption rate (OCR)” value is given as “initial substantial decrease in OCR followed by recovery”.

Turning to `COc1ccc(C[C@H](N)C(=O)N[C@H]2[C@@H](O)[C@H](n3cnc4c(N(C)C)ncnc43)O[C@@H]2CO)cc1` [puromycin, reference compound], the “germination inhibition phenotype (chemical phenotype) in QGA” value in data set [1] was “slow-down”.

As to `C=C(C)[C@H]1Cc2c(ccc3c2O[C@@H]2COc4cc(OC)c(OC)cc4[C@@H]2C3=O)O1` [rotenone, reference compound], in data set [1], the “phenotypic concentration” value was determined as 10 µM and the “germination inhibition phenotype (chemical phenotype) in QGA” value is “asynchrony”.
